ID₅₀, IC50 and Grooming score data for 19 molecules are collected here from patent publication EP0339193A1, “Peptide ligands for bombesin receptors” (FARMITALIA CARLO ERBA S.r.l., priority 1988, dated 1989).

Structures can show the parent of a compound that is named as a salt. Numbered stars: 1 amine (or outer) side, 2 acyl side, 3 side chain; on linkers, the order of the positions; unused ones are H or OH. Square brackets hold non-standard residues; d marks the D form. Ends that are not written are not given here. Peptide text beside a SMILES is read from it. * marks the point of attachment. His(Dnp) = O=C([C@H](Cc1cn(-c2ccc([N+](=O)[O-])cc2[N+](=O)[O-])cn1)N[*:1])[*:2]; Dnp = O=[N+]([O-])c1ccc(*)c([N+](=O)[O-])c1; Boc = CC(C)(C)OC(=O)*; NHPentyl = CCCCCN*

In one experiment the target is T1, bombesin receptors (Mus musculus, UniProt P21729).
T1 construct: has been determined on Swiss 3T3 fibroblasts; endogenous in cells; host or cells: mouse Swiss 3T3 fibroblasts
T1 sequence (P21729 whole entry): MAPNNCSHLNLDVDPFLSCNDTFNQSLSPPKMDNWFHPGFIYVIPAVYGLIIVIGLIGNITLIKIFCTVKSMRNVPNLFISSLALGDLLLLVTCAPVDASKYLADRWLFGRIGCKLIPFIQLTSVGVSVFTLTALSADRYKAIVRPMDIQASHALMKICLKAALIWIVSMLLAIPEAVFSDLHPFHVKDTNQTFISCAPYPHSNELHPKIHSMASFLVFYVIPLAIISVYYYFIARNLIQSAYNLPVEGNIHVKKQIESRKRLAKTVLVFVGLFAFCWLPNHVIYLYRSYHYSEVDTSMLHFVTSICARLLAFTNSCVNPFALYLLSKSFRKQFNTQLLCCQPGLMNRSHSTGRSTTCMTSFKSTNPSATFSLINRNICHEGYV
The experiment in a line: Binding affinity for the bombesin receptors on Swiss 3T3 fibroblasts. To be noted: binding affinity on mouse Swiss 3T3 fibroblasts. An excerpt:
The binding affinity of the compounds of the present invention for the bombesin receptors has been determined on Swiss 3T3 fibroblasts (I. Zachary and E. Rozengurt (1985) Proc. Natl. Acad. Sci. USA, 82, 7616-7620) (Table 1).
Take “H-Thr-Gln-Trp-Ala-Val-Gly-His(Dnp)-Leu-Met-NH₂ . HCl (TQWAVGH; His(Dnp)-Leu-Met-NH2 extension; HCl salt; printed: Thr-Gln-Trp-Ala-Val-Gly-His) [XXII]”: the ID₅₀ is 5,800 ± 750 nM.

With “Glp-Gln-Arg-Leu-Gly-Asn-Gln-Trp-Ala-Val-Gly-His-Leu-Met-NH₂ [BBS, reference compound]”, the ID₅₀ was determined as 12.6 ± 3.8 nM. “H-Thr-Gln-Trp-Ala-Val-Gly-His(Dnp)-Leu-NH(CH₂)₄ CH₃.CF₃COOH (H-TQWAVG[His(Dnp)]L-{NH(CH2)4CH3}; also: TFA salt) [XXVII]” yielded an ID₅₀ of 335 ± 101 nM.

As to “p-GRP: porcine gastrin releasing peptide (APVSVGGGTVLAKMYPRGNHWAVGHLM; ends and bridges not checked; UniProt P63153 24-50, looked up) [reference compound]”, the ID₅₀ was 17.6 ± 4.0 nM. Same read-out and setting: next, “Boc-Thr-Gln-Trp-Ala-Val-Gly-His(Dnp)-Leu-NH₂ (Boc-TQWAVG[His(Dnp)]L-NH2; SMILES CC(C)C[C@H](NC(=O)[C@H](Cc1cn(-c2ccc([N+](=O)[O-])cc2[N+](=O)[O-])cn1)NC(=O)CNC(=O)[C@@H](NC(=O)[C@H](C)NC(=O)[C@H](Cc1c[nH]c2ccccc12)NC(=O)[C@H](CCC(N)=O)NC(=O)[C@@H](NC(=O)OC(C)(C)C)[C@@H](C)O)C(C)C)C(N)=O) [XXXII]”: 770 ± 13 nM; “H-Thr-Gln-Trp-Ala-Val-Gly-His(Dnp)-leu-Met-NH₂ . HCl (H-TQWAVGH(Dnp); not fully specified (C-terminus); also: HCl salt) [XX]”: 63,000 nM.

The experiment is the same for the next values; noted with them: binding affinity on mouse Swiss 3T3 fibroblasts; read-out: ID₅₀.
On to `CSCC[C@H](NC(=O)[C@H](CC(C)C)NC(=O)[C@H](Cc1c[nH]cn1)NC(=O)CNC(=O)[C@@H](NC(=O)[C@H](C)NC(=O)[C@H](Cc1c[nH]c2ccccc12)NC(=O)[C@H](CCC(N)=O)NC(=O)[C@@H](N)CC(N)=O)C(C)C)C(N)=O` [BBS(6-14)nonapeptide, reference compound], for which the IC50 was 9.4 ± 3.1 nM.

Consider `CSCC[C@H](NC(=O)[C@@H](CC(C)C)NC(=O)[C@H](Cc1c[nH]cn1)NC(=O)CNC(=O)[C@@H](NC(=O)[C@H](C)NC(=O)[C@H](Cc1c[nH]c2ccccc12)NC(=O)[C@H](CCC(N)=O)NC(=O)[C@@H](N)[C@@H](C)O)C(C)C)C(N)=O` [XXI, H-Thr-Gln-Trp-Ala-Val-Gly-His-leu-Met-NH₂.CF₃COOH], for which the IC50 is 10000 nM. In the case of “TQWAVGSLM-NH2 [XXIV, H-Thr-Gln-Trp-Ala-Val-Gly-Ser-Leu-Met-NH₂.CF₃COOH]”, the IC50 is 590 ± 130 nM.

On to “KTQWAVGALM-NH2 [XXV, H-Lys-Thr-Gln-Trp-Ala-Val-Gly-Ala-Leu-Met-NH₂ . 2HCl]”, for which the IC50 worked out at 970 ± 4 nM.

As for `CCCCCNC(=O)[C@H](CC(C)C)NC(=O)[C@H](Cc1c[nH]cn1)NC(=O)CNC(=O)[C@@H](NC(=O)[C@H](C)NC(=O)[C@H](Cc1c[nH]c2ccccc12)NC(=O)[C@H](CCC(N)=O)NC(=O)[C@@H](N)[C@@H](C)O)C(C)C` [XXVIII, H-Thr-Gln-Trp-Ala-Val-Gly-His-Leu-NH(CH₂)₄CH₃. 2CF₃COOH] (H-TQWAVGHL-NHPentyl), the IC50 was found to be 76 ± 30 nM. On the same count and under the same terms, next, `CSCC[C@H](NC(=O)[C@H](CC(C)C)NC(=O)[C@@H](Cc1ccccc1)NC(=O)CNC(=O)[C@@H](NC(=O)[C@H](C)NC(=O)[C@H](Cc1c[nH]c2ccccc12)NC(=O)[C@H](CCC(N)=O)NC(=O)[C@@H](N)[C@@H](C)O)C(C)C)C(N)=O` [XVII, HCl.H-Thr-Gln-Trp-Ala-Val-Gly-phe-Leu-Met-NH₂] (H-TQWAVG[dF]LM-NH2): 32500 nM; `CSCC[C@H](NC(=O)[C@H](CC(C)C)NC(=O)[C@@H](Cc1ccccc1)NC(=O)CNC(=O)[C@@H](NC(=O)[C@H](C)NC(=O)[C@H](Cc1c[nH]c2ccccc12)NC(=O)[C@H](CCC(N)=O)NC(=O)[C@@H](NC(=O)OC(C)(C)C)[C@@H](C)O)C(C)C)C(N)=O` [XVI, Boc-Thr-Gln-Trp-Ala-Val-Gly-phe-Leu-Met-NH₂] (Boc-TQWAVG[dF]LM-NH2): 19500 nM. Still for that read-out and setting: next, “RTQWAVGALM-NH2 [XXVI, H-Arg-Thr-Gln-Trp-Ala-Val-Gly-Ala-Leu-Met-NH₂. 2CF₃COOH]”: 200 ± 60 nM; `CSCC[C@H](NC(=O)[C@H](CC(C)C)NC(=O)CNC(=O)[C@@H](NC(=O)[C@H](C)NC(=O)[C@H](Cc1c[nH]c2ccccc12)NC(=O)[C@H](CCC(N)=O)NC(=O)[C@@H](NC(=O)OC(C)(C)C)[C@@H](C)O)C(C)C)C(N)=O` [XVIII, Boc-Thr-Gln-Trp-Ala-Val-Gly-Leu-Met-NH₂] (Boc-TQWAVGLM-NH2): 1000 nM.

As for “TQWAVGLM-NH2 [XIX, HCl. H-Thr-Gln-Trp-Ala-Val-Gly-Leu-Met-NH₂]”, the IC50 worked out at 3400 nM. For `CSCC[C@H](NC(=O)[C@H](CC(C)C)NC(=O)[C@@H](C)NC(=O)CNC(=O)[C@@H](NC(=O)[C@H](C)NC(=O)[C@H](Cc1c[nH]c2ccccc12)NC(=O)[C@H](CCC(N)=O)NC(=O)[C@@H](NC(=O)OC(C)(C)C)[C@@H](C)O)C(C)C)C(N)=O` [XXXIV, Boc-Thr-Gln-Trp-Ala-Val-Gly-ala-Leu-Met-NH₂] (Boc-TQWAVG[dA]LM-NH2), the IC50 was found to be 18200 nM. On the same count and under the same terms, next, “TQWAVGFLM-NH2 [XXIII, H-Thr-Gln-Trp-Ala-Val-Gly-Phe-Leu-Met-NH₂.CF₃COOH]”: 4700 nM; `CC(C)C[C@H](NC(=O)[C@H](Cc1c[nH]cn1)NC(=O)CNC(=O)[C@@H](NC(=O)[C@H](C)NC(=O)[C@H](Cc1c[nH]c2ccccc12)NC(=O)[C@H](CCC(N)=O)NC(=O)[C@@H](NC(=O)OC(C)(C)C)[C@@H](C)O)C(C)C)C(N)=O` [XXXIII, Boc-Thr-Gln-Trp-Ala-Val-Gly-His-Leu-NH₂] (Boc-TQWAVGHL-NH2): 556 ± 128 nM.

In another experiment the test system is rat grooming behaviour stimulated by bombesin. The experiment in a line: Grooming behaviour in the rat after i.c.v. administration (inhibition of bombesin-stimulated grooming). In kind it is in vivo. To be noted: BBS 0.01 µg/rat + XXI 10 µg/rat in combination. An excerpt:
The antagonistic activity has been evaluated both in vitro and in vivo; in vitro, as inhibition of the bombesin-induced DNA synthesis in Swiss 3T3 cells (A.N. Corps et al. (1985) Biochem. J., 231, 781-785) (Table 2) and rat urinary bladder contraction (M. Broccardo et al. (1975) Br. J.Pharmac., 55, 221-227) (Table 3); in vivo, by i.c.v. administration, as inhibition of the rat grooming behaviour stimulated by bombesin (A. Cowan et al. (1985) Life Sciences, 37, 135-145) (Table 4).
As to `CSCC[C@H](NC(=O)[C@@H](CC(C)C)NC(=O)[C@H](Cc1c[nH]cn1)NC(=O)CNC(=O)[C@@H](NC(=O)[C@H](C)NC(=O)[C@H](Cc1c[nH]c2ccccc12)NC(=O)[C@H](CCC(N)=O)NC(=O)[C@@H](N)[C@@H](C)O)C(C)C)C(N)=O` [XXI, H-Thr-Gln-Trp-Ala-Val-Gly-His-leu-Met-NH₂.CF₃COOH], the Grooming score worked out at 35.

Staying with this experiment, now noted: BBS 0.01 µg/rat alone.
“Glp-Gln-Arg-Leu-Gly-Asn-Gln-Trp-Ala-Val-Gly-His-Leu-Met-NH₂ [BBS, reference compound]” showed a Grooming score of 55.

Still in this experiment, the particulars now being: peptide XXI 10 µg/rat alone.
Molecule `CSCC[C@H](NC(=O)[C@@H](CC(C)C)NC(=O)[C@H](Cc1c[nH]cn1)NC(=O)CNC(=O)[C@@H](NC(=O)[C@H](C)NC(=O)[C@H](Cc1c[nH]c2ccccc12)NC(=O)[C@H](CCC(N)=O)NC(=O)[C@@H](N)[C@@H](C)O)C(C)C)C(N)=O` [XXI, H-Thr-Gln-Trp-Ala-Val-Gly-His-leu-Met-NH₂.CF₃COOH] returned a Grooming score of 15.
